Measured values as given in patent US20090215778A1, “Alpha-substituted Arylmethyl Piperazine Pyrazolo [1,5-alpha]Pyrimidine Amide Derivatives” (priority 2007, published 2009).

Assays:
[1] = molecular target: T1, HIV Env six-helix bundle (6HB) structure (Human immunodeficiency virus type 1 group M subtype B, UniProt P04579); experiment: Six-helix bundle (6HB) assay; assay type: cell-based, HIV-1 (strain RF)
T1 construct: H9 cells chronically infected with HIV-1 (H9/HIV-1RF); endogenous in cells; host or cells: H9 cells chronically infected with HIV-1 strain RF (Env is made from the virus in the infected cells, not by transfection)
T1 sequence (P04579 32-519): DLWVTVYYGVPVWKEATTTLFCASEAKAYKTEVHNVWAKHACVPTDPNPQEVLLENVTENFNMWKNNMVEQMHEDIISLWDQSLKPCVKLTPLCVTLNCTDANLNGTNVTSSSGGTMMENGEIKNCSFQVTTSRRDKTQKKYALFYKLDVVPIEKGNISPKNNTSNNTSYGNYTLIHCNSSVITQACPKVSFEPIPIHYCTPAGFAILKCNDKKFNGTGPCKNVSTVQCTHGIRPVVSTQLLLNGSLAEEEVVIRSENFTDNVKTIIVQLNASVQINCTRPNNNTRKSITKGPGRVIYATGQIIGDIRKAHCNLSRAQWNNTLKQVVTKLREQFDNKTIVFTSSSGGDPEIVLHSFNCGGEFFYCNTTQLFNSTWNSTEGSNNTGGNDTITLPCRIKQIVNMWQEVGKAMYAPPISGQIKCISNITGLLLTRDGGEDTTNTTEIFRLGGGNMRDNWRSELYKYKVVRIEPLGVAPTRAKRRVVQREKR
T1 sequence (P04579 520-865): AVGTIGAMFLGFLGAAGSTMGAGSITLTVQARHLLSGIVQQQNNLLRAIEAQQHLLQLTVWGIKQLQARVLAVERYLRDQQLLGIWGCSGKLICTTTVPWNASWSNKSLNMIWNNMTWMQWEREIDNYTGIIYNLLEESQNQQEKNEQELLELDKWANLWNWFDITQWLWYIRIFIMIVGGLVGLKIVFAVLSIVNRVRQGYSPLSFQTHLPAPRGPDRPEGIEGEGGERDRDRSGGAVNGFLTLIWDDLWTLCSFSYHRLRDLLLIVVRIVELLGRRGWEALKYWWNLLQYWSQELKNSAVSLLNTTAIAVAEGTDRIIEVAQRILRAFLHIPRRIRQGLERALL
Outline: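 Flow cytometry measured binding of a six-helix-bundle-specific polyclonal antibody, detected with PE-labelled secondary at 4 °C for 45 min, on H9/HIV-1 RF chronically infected cells. Compound was given 30 min at 37 °C before 1 μg/mL soluble CD4 induction for 1 h. Inhibition appears as reduced fluorescence.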

HIV-1, NL4-3 strain = experiment: Virus infection assay (virus entry and single-cycle infection); assay type: cell-based; conditions: Human immunodeficiency virus 1, NL43, TZM-b1, read-out: Nl4
Outline: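 Single-cycle entry/infection read-out: β-galactosidase chemiluminescence measured one day after infection. Compounds were present during a 4 h, 37 °C exposure of TZM-b1 reporter cells to NL4-3 virus at MOI 0.01 plus DEAE-dextran (80 μg/mL final), followed by addition of complete medium.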

For `COc1ccc(-c2nc3c(C(=O)N4CCN(C(CO)c5c(F)cccc5OC)C[C@H]4C)cnn3c(C(F)(F)F)c2C)cc1` (stereo partly drawn) [methanone, [(2R)-4-[1-(2-fluoro-6-methoxyphenyl)-2-hydroxyethyl]-2-methyl-1-piperazinyl][5-(4-methoxyphenyl)-6-methyl-7-(trifluoromethyl)pyrazolo[1,5-α]pyrimidin-3-yl]-], the IC50 [1] was less than 1000 nM and the IC50 (HIV-1, NL4-3 strain) was less than 1000 nM.
With `COc1ccc(-c2nc3c(C(=O)N4CCN(C(CO)c5ccccc5F)C[C@H]4C)cnn3c(C(F)(F)F)c2C)cc1` (stereo partly drawn) [methanone, [(2R)-4-[1-(2-fluorophenyl)-2-hydroxyethyl]-2-methyl-1-piperazinyl][5-(4-methoxyphenyl)-6-methyl-7-(trifluoromethyl)pyrazolo[1,5-α]pyrimidin-3-yl]-] the IC50 [1] was less than 1000 nM and the IC50 (HIV-1, NL4-3 strain) was less than 1000 nM.
Compound `COc1ccc(-c2nc3c(C(=O)N4CCN(C(CO)c5ccccc5F)C[C@H]4C)cnn3c(C(F)(F)F)c2C)cn1` (stereo partly drawn) [methanone, [(2R)-4-[1-(2-fluorophenyl)-2-hydroxyethyl]-2-methyl-1-piperazinyl][5-(6-methoxy-3-pyridinyl)-6-methyl-7-(trifluoromethyl)pyrazolo[1,5-α]pyrimidin-3-yl]-] has an IC50 [1] of less than 1000 nM and an IC50 (HIV-1, NL4-3 strain) of less than 1000 nM.
`COc1ccc(-c2nc3c(C(=O)N4CCN(C(CO)c5ccco5)C[C@H]4C)cnn3c(C(F)(F)F)c2C)cc1` (stereo partly drawn) [methanone, [(2R)-4-[1-(2-furanyl)-2-hydroxyethyl]-2-methyl-1-piperazinyl][5-(4-methoxyphenyl)-6-methyl-7-(trifluoromethyl)pyrazolo[1,5-α]pyrimidin-3-yl]-] showed an IC50 [1] of less than 1000 nM and an IC50 (HIV-1, NL4-3 strain) of less than 1000 nM.
Work on `COc1ccc(-c2nc3c(C(=O)N4CCN(C(CO)c5cc(F)cc(F)c5OC)C[C@H]4C)cnn3c(C(F)(F)F)c2C)cc1` (stereo partly drawn) [methanone, [(2R)-4-[1-(3,5-difluoro-2-methoxyphenyl)-2-hydroxyethyl]-2-methyl-1-piperazinyl][5-(4-methoxyphenyl)-6-methyl-7-(trifluoromethyl)pyrazolo[1,5-α]pyrimidin-3-yl]-] yielded an IC50 [1] of less than 1000 nM and an IC50 (HIV-1, NL4-3 strain) of less than 1000 nM.
Compound `COc1ccc(-c2nc3c(C(=O)N4CCN(C(CO)c5cc(F)cc(F)c5)C[C@H]4C)cnn3c(C(F)(F)F)c2C)cc1` (stereo partly drawn) [methanone, [(2R)-4-[1-(3,5-difluorophenyl)-2-hydroxyethyl]-2-methyl-1-piperazinyl][5-(4-methoxyphenyl)-6-methyl-7-(trifluoromethyl)pyrazolo[1,5-α]pyrimidin-3-yl]-] has an IC50 [1] of less than 1000 nM and an IC50 (HIV-1, NL4-3 strain) of less than 1000 nM.
Compound `COc1ccc(-c2nc3c(C(=O)N4CCN(C(CO)c5cccc(N)c5)C[C@H]4C)cnn3c(C(F)(F)F)c2C)cc1` (stereo partly drawn) [methanone, [(2R)-4-[1-(3-aminophenyl)-2-hydroxyethyl]-2-methyl-1-piperazinyl][5-(4-methoxyphenyl)-6-methyl-7-(trifluoromethyl)pyrazolo[1,5-α]pyrimidin-3-yl]-] has an IC50 [1] of less than 1000 nM and an IC50 (HIV-1, NL4-3 strain) of less than 1000 nM.
With `COc1ccc(-c2nc3c(C(=O)N4CCN(C(CO)c5cccc(Br)c5)C[C@H]4C)cnn3c(C(F)(F)F)c2C)cc1` (stereo partly drawn) [methanone, [(2R)-4-[1-(3-bromophenyl)-2-hydroxyethyl]-2-methyl-1-piperazinyl][5-(4-methoxyphenyl)-6-methyl-7-(trifluoromethyl)pyrazolo[1,5-α]pyrimidin-3-yl]-] the IC50 [1] was less than 1000 nM and the IC50 (HIV-1, NL4-3 strain) was less than 1000 nM.
`COc1ccc(-c2nc3c(C(=O)N4CCN(C(CO)c5cccc(Cl)c5)C[C@H]4C)cnn3c(C(F)(F)F)c2C)cc1` (stereo partly drawn) [methanone, [(2R)-4-[1-(3-chlorophenyl)-2-hydroxyethyl]-2-methyl-1-piperazinyl][5-(4-methoxyphenyl)-6-methyl-7-(trifluoromethyl)pyrazolo[1,5-α]pyrimidin-3-yl]-] showed an IC50 [1] of less than 1000 nM and an IC50 (HIV-1, NL4-3 strain) of less than 1000 nM.
`COc1ccc(-c2nc3c(C(=O)N4CCN(C(CO)c5cc(F)cc(OC)c5)C[C@H]4C)cnn3c(C(F)(F)F)c2C)cc1` (stereo partly drawn) [methanone, [(2R)-4-[1-(3-fluoro-5-methoxyphenyl)-2-hydroxyethyl]-2-methyl-1-piperazinyl][5-(4-methoxyphenyl)-6-methyl-7-(trifluoromethyl)pyrazolo[1,5-α]pyrimidin-3-yl]-] was tested, and the IC50 [1] was less than 1000 nM and the IC50 (HIV-1, NL4-3 strain) was less than 1000 nM.
